Experiments:
[1] = distribution volume; details: in vivo
[2] = biological target: activated blood coagulation factor X (FXa) (Homo sapiens, UniProt P00742); assay: FXa inhibitory effect; type: biochemical
Chain of activated blood coagulation factor X (FXa) (P00742 235-488 limits assumed): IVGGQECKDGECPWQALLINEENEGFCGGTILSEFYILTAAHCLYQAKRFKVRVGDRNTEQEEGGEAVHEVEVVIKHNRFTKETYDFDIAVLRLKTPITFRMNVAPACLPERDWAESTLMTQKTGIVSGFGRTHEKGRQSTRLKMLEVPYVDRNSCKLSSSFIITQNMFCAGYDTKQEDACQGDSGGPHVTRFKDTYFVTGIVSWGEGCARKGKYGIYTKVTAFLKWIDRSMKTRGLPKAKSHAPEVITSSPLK
Chain of activated blood coagulation factor X (FXa) (P00742 41-179 partner limits assumed): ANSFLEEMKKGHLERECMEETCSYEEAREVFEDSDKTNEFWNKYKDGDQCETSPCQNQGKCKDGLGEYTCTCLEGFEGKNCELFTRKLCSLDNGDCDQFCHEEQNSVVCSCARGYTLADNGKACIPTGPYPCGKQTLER

distribution volume [1]: 0.8 L/kg
IC50 [2]: < 100 nM
SMILES: CN(C)C(=O)c1ccc2oc(C(=O)Nc3ccc(Cl)cn3)c(NC(=O)[C@H]3CC[C@H](N(C)C=O)CC3)c2c1 [trans-5-dimethylaminocarbonyl-3-[4-(N-formyl-N-methylamino)-cyclohexylcarbonylamino]-N-(5-chloropyridin-2-yl)-benzofuran-2-carboxamide]
